One series deals with interleukin-8. The following applies: cited from earlier work.
The conditions of series [1]: only known side effect; cited from earlier work.
The test system of series [2] is mild to moderate eczema lesions. An excerpt:
Anecdotally, zinc pyrithione appears to produce a transient histamine blocking or inhibiting mechanism.

The conditions of series [3]: 24 patients, 0.25% zinc pyrithione spray; cited from earlier work.
Series [4] deals with eczema, psoriasis and other forms of immuno-dysfunctional dermatitis. The series can be described thus: control of eczema, psoriasis and other immuno-dysfunctional dermatitis by the individual ingredients and their combination. In kind it is in vivo, human. An excerpt:
The present invention includes zinc pyrithione, which has been used in other preparations for various types of skin conditions. Zinc pyrithione may be used to control mild to possibly moderate eczema and psoriasis.
The explanations above provide some validation of how these three ingredients may provide limited benefits, but cannot explain the dynamics of their relationship in the control of pro-inflammatory cytokines and the speed of the repair and healing process.

[5] abbreviates: suspended in a water solution, topical, mild to moderate eczema lesions.

On to epigallocatechin-3-gallate, for which the “tumor necrosis factor-alpha mediated interleukin-8 expression” value in the series on interleukin-8 is “inhibits tumor necrosis factor-alpha mediated interleukin-8 expression in a dose related manner”.
As for zinc pyrithione, in series [1], the “normal allergic reaction, share of the population” value is on record as “less than one”. In addition, the erythema result in series [2] (during the period of itch relief) is on record as “erythema was reduced”. In series [2] (setting [5]), the “duration of itch relief” value is on record as “up to six” and the “time to relief of the itching sensation” value is on record as “fifteen to thirty”. The “effect on the efficacy of clobetasol propionate” value in series [3] is “did not appear to enhance the efficacy of clobetasol propionate”. In series [4] (ingredient used individually or the three combined), the control of disease result is “some degree of control benefits for mild and possibly moderate eczema, psoriasis”. Moreover, the “control of disease in the moderate to severe ranges” value in series [4] (zinc pyrithione by itself) is recorded as “fails to control these diseases in the moderate to severe ranges”.

(Values after patent publication US20060013899A1, “Topical compositions for treatment of skin disorders and methods of use thereof” (priority 2004, published 2006).)
